Results from ChEMBL document CHEMBL1145327, “Structural insights into monoamine oxidase inhibitory potency and selectivity of 7-substituted coumarins from ligand- and target-based approaches” (J Med Chem, 2006).

Assays:
[1] = molecular target: T1, Amine oxidase [flavin-containing] B (Rattus norvegicus, UniProt P19643); assay type: mitochondria, Sprague-Dawley, Mitochondria
T1 sequence (P19643 whole entry): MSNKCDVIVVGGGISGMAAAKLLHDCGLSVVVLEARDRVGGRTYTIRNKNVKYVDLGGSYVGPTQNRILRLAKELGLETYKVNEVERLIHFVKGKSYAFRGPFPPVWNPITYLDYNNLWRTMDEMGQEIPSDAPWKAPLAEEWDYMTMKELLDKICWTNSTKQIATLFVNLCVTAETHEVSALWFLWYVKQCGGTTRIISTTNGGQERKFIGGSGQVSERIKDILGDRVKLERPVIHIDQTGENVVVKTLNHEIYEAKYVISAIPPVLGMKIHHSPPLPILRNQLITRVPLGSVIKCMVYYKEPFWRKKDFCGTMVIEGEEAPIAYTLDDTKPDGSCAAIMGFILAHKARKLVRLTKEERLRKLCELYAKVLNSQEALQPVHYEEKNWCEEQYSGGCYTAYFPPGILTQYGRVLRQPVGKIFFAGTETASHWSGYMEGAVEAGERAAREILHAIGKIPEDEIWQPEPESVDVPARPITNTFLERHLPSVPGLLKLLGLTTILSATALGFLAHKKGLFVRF
Description: Inhibition of Sprague-Dawley rat brain mitochondria MAOB by continuous spectrophotometric assay

[2] = molecular target: T2, Amine oxidase [flavin-containing] A (Rattus norvegicus, UniProt P21396); assay type: mitochondria, Sprague-Dawley, Mitochondria
T2 sequence (P21396 whole entry): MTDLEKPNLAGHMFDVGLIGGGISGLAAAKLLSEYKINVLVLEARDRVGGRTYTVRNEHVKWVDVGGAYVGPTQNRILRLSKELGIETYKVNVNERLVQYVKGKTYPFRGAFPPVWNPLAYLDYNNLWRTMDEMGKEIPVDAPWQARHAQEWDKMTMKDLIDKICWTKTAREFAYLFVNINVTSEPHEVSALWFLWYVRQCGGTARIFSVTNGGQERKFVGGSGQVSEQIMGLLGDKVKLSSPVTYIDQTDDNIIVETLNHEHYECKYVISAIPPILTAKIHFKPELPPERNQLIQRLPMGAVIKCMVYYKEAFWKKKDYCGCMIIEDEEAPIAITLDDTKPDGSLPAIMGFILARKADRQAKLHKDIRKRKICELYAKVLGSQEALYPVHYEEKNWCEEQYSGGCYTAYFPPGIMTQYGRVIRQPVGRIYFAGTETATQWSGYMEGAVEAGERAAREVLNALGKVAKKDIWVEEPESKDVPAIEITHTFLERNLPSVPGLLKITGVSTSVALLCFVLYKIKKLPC
Description: Inhibition of Sprague-Dawley rat brain mitochondria MAOA by continuous spectrophotometric assay

| Compound | IC50 [1] | IC50 [2] |
| --- | --- | --- |
| Cc1c(C)c2ccc(S(=O)(=O)Cc3ccccc3)cc2oc1=O | 2750 nM | 18600 nM |
| Cc1cc2ccc(OCc3ccccc3)cc2oc1=O | 6.61 nM | 5500 nM |
| Cc1c(C)c2ccc(SCc3ccccc3)cc2oc1=O | 39.8 nM | 10000 nM |
| Cc1c(C)c2ccc(OCS(=O)(=O)c3ccccc3)cc2oc1=O | 871 nM | 2820 nM |
| Cc1c(C)c2ccc(OCC(O)c3ccccc3)cc2oc1=O (racemic) | 70.8 nM | 10000 nM |
| Cc1c(C)c2ccc(Oc3ccccc3)cc2oc1=O | 3240 nM |  |
| O=C(OCc1ccc2ccc(=O)oc2c1)c1ccccc1 | 2400 nM | 9550 nM |
| Cc1c(C)c2ccc(OC/C=C/c3ccccc3)cc2oc1=O | 112 nM |  |
| Cc1c(C)c2ccc(OC[C@@H](O)c3ccccc3)cc2oc1=O | 28.2 nM | 10000 nM |
| Cc1cc2ccc(OCc3cccc(Cl)c3)cc2oc1=O | 5.13 nM | 12600 nM |
| Cc1c(C)c2ccc(CCc3ccccc3)cc2oc1=O | 457 nM | 7080 nM |
| Cc1c(C)c2ccc(OCCOc3ccccc3)cc2oc1=O | 26.9 nM | 10200 nM |
| Cc1ccc(S(=O)(=O)N(C)c2ccc3c(C)c(C)c(=O)oc3c2)cc1 |  | 4570 nM |
| Cc1c(C)c2ccc(OC[C@H](O)c3ccccc3)cc2oc1=O | 302 nM | 3240 nM |
